Source: patent US20250215039A1, “NUCLEOSIDES FOR TREATING CANCER” (PRIMEFOUR THERAPEUTICS, INC., priority 2022, published 2025)
Where two headings read alike, the source gives them in different places.

How the values were obtained:
[1] = target: human cytidine deaminase (CDA) (Homo sapiens, UniProt P32320); experiment: Metabolism by human cytidine deaminase (CDA), substrate absorbance at 290 nm
Experimental: Transfer 7.2 μl of each of the substrate DMSO stock in step 2 into a 500 μl 96-Well V-bottom Microplate, clear SBS footprint, cat #P-96-450V-C
Add 352.8 μl assay buffer to the wells
For deaminated product compounds mix 4 μl product with 196 μl assay buffer
This was incubated at 37° C. for 1 h. 200 μl of this mixture was transferred into the assay plate to serve as the product control.
Product+buffer: mix 80 ul of the 2.5× intermediate product stocks (from step 3) with 120 ul assay buffer into product control (no enzyme) wells
Incubate the plate alongside the 20 nM CDA enzyme intermediate stock at 37° C. to temperature equilibrate reagents
Add 120 μl of the 20 nM enzyme mix into the Substrate+CDA wells and start reading at 290 nm every 30 s for about 60 min
50 and 200 uM substrate and product
In 100 mM Tris, pH 7.5, 100 mM KCl, 0.8% carryover DMSO
5 min incubation at 37° C.
Absorbance at 290 nm every 30 s at 37° C. for 1 h using FlexStation 3
Convert A290 to concentration of substrate remaining at time t after enzyme addition:
[formula] • where: • St=absorbance reading of: substrate+CDA wells at time t • So=Average absorbance reading of: substrate+buffer wells • Po=Average absorbance reading of: product+buffer wells • [S]t=initial substrate concentration • Use GraphPad to plot [substrate] against time to calculate initial velocity or slope (μMs^−1) i.e. the linear range of each curve • Express rate in s^−1 by dividing initial velocity by the total enzyme concentration.
Plot rate against [substrate] and fit data to standard Michaelis Menten equation to obtain kcat and KM parameters.

cancer cell lines = experiment: Cancer cell proliferation activity (CellTiterGlo, 72 h); format: cell-based; settings: 72 h, 72 h, read-out: IC50 cell proliferation
Procedure, shortened: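 Cells seeded overnight at 37 °C, then dosed with compound at 0.1% final DMSO and incubated 72 h at 37 °C (5% or 10% CO2 by medium).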

human cytidine deaminase (CDA), sequence (P32320 whole entry): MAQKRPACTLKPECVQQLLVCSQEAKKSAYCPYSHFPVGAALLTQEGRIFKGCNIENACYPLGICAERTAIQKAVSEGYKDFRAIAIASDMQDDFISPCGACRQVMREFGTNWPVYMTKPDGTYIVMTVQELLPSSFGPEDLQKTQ

In the case of `C[C@]1(CO)O[C@@H](n2ccc(N)nc2=O)C(F)(F)[C@@H]1O` [Cpd. No. 190, 4-amino-1-((2R,4R,5R)-3,3-difluoro-4-hydroxy-5-(hydroxymethyl)-5-methyltetrahydrofuran-2-yl)pyrimidin-2(1H)-one], the “metabolism (deamination) by human CDA (line graph)” value ([1]; 12 nM CDA, 50 and 200 uM substrate, 37° C., pH 7.5, figure legends FIG. 4-9) is reported as “not metabolized”, the “substrate conversion by CDA (Inactive)” value ([1]; rate of substrate conversion at 200 μM, could not be fitted) is reported as “Inactive” and the IC50 (cancer cell lines; 5637 (bladder)) is reported as 3.87 µM. The IC50 (cancer cell lines; CLS439 (bladder)) was > 50 µM, the IC50 (cancer cell lines; HS729 (muscle)) was 4.74 µM and the IC50 (cancer cell lines; J82 (bladder)) was > 50 µM. The IC50 (cancer cell lines; JAR (placenta)) was > 50 µM, the IC50 (cancer cell lines; MT3 (breast)) was 1.08 µM and the IC50 (cancer cell lines; PANCI (pancreas)) was > 50 µM. The IC50 (cancer cell lines; PC3 (prostate)) was 1.46 µM, the IC50 (cancer cell lines; RD (muscle)) was > 50 µM and the IC50 (cancer cell lines; T24 (bladder)) was 3.21 µM. For the same molecule, the IC50 (cancer cell lines; Homo sapiens, 22Rv1, 72 h, 22RV1 (prostate)) was > 50 µM, the IC50 (cancer cell lines; Homo sapiens, 786-0, 72 h, 786O (kidney)) was > 50 µM and the IC50 (cancer cell lines; Homo sapiens, A204, 72 h, A204 (muscle)) was 0.17 µM. The IC50 (cancer cell lines; Homo sapiens, A549, 72 h, A549 (lung)) was 2.9 µM, the IC50 (cancer cell lines; Homo sapiens, A673, 72 h, A673 (bone)) was > 50 µM and the IC50 (cancer cell lines; Homo sapiens, A2780, 72 h, A2780 (ovary)) was 5.39 µM. The IC50 (cancer cell lines; Homo sapiens, A-375, 72 h, A375 (skin)) was > 50 µM, the IC50 (cancer cell lines; Homo sapiens, A-431, 72 h, A431 (skin)) was 3.8 µM and the IC50 (cancer cell lines; Homo sapiens, ACHN, ACHN (kidney)) was 2.85 µM. For the same molecule, the IC50 (cancer cell lines; Homo sapiens, ASPC1, 72 h, ASPC1 (pancreas)) was > 50 µM, the IC50 (cancer cell lines; Homo sapiens, BT-20, 72 h, BT20 (breast)) was > 50 µM and the IC50 (cancer cell lines; Homo sapiens, BXPC-3, 72 h, BXPC3 (pancreas)) was > 50 µM. For the same molecule, the IC50 (cancer cell lines; Homo sapiens, C-33-A, C33A (endometrial)) was 2.08 µM, the IC50 (cancer cell lines; Homo sapiens, CAKI-1, 72 h, CAKI1 (kidney)) was 1.07 µM and the IC50 (cancer cell lines; Homo sapiens, COLO 205, 72 h, COLO205 (colon)) was 3.03 µM. The IC50 (cancer cell lines; Homo sapiens, COLO-678, 72 h, COLO678 (colon)) was > 50 µM, the IC50 (cancer cell lines; Homo sapiens, Ca-Ski, CASKI (endometrial)) was > 50 µM and the IC50 (cancer cell lines; Homo sapiens, Caco-2, 72 h, CACO2 (colon)) was > 50 µM. For the same molecule, the IC50 (cancer cell lines; Homo sapiens, Calu-6, 72 h, CALU6 (lung)) was 5.25 µM, the IC50 (cancer cell lines; Homo sapiens, DLD-1, 72 h, DLD1 (colon)) was > 50 µM and the IC50 (cancer cell lines; Homo sapiens, DU-145, 72 h, DU145 (prostate)) was 3.18 µM. For the same molecule, the IC50 (cancer cell lines; Homo sapiens, EFO-21, 72 h, EFO21 (ovary)) was > 50 µM, the IC50 (cancer cell lines; Homo sapiens, EJ-28, 72 h, EJ28 (bladder)) was > 50 µM and the IC50 (cancer cell lines; Homo sapiens, Granta-519, 72 h, GRANTA-519 (hematological)) was 1.24 µM. The IC50 (cancer cell lines; Homo sapiens, HCT-15, 72 h, HCT15 (colon)) was 3.1 µM, the IC50 (cancer cell lines; Homo sapiens, HCT-116, 72 h, HCT116 (colon)) was 3.28 µM and the IC50 (cancer cell lines; Homo sapiens, HEK293, 72 h, HEK293 (kidney)) was > 50 µM. The IC50 (cancer cell lines; Homo sapiens, HL-60, 72 h, HL-60 (hematological)) was > 50 µM, the IC50 (cancer cell lines; Homo sapiens, HT-29, 72 h, HT29 (colon)) was > 50 µM and the IC50 (cancer cell lines; Homo sapiens, HT-1080, 72 h, HT1080 (connective tissue)) was 4.73 µM. The IC50 (cancer cell lines; Homo sapiens, HeLa, HELA (endometrial)) was > 50 µM, the IC50 (cancer cell lines; Homo sapiens, HepG2, 72 h, HEPG2 (liver)) was > 50 µM and the IC50 (cancer cell lines; Homo sapiens, Hs-578T, HS578T (breast)) was > 50 µM. The IC50 (cancer cell lines; Homo sapiens, IGROV-1, 72 h, IGROV1 (ovary)) was 4.31 µM, the IC50 (cancer cell lines; Homo sapiens, IMR-90, 72 h, IMR90 (lung)) was > 50 µM and the IC50 (cancer cell lines; Homo sapiens, JEG-3, 72 h, JEG3 (placenta)) was > 50 µM. The IC50 (cancer cell lines; Homo sapiens, JIMT-1, 72 h, JIMT1 (breast)) was 2.23 µM, the IC50 (cancer cell lines; Homo sapiens, K562, 72 h, K-562 (hematological)) was > 50 µM and the IC50 (cancer cell lines; Homo sapiens, Kasumi 1, 72 h, KASUMI-1 (hematological)) was 2.23 µM. For the same molecule, the IC50 (cancer cell lines; Homo sapiens, L-363, 72 h, L-363 (hematological)) was > 50 µM, the IC50 (cancer cell lines; Homo sapiens, LoVo, LOVO (colon)) was 2.74 µM and the IC50 (cancer cell lines; Homo sapiens, MCF7, 72 h, MCF7 (breast)) was > 50 µM. For the same molecule, the IC50 (cancer cell lines; Homo sapiens, MDA-MB-231, 72 h, MDAMB231 (breast)) was 2.23 µM, the IC50 (cancer cell lines; Homo sapiens, MDA-MB-435, 72 h, MDAMB435 (skin)) was 4.7 µM and the IC50 (cancer cell lines; Homo sapiens, MDA-MB-436, 72 h, MDAMB436 (breast)) was > 50 µM. The IC50 (cancer cell lines; Homo sapiens, MDA-MB-468, 72 h, MDAMB468 (breast)) was > 50 µM, the IC50 (cancer cell lines; Homo sapiens, MG-63, 72 h, MG63 (bone)) was > 50 µM and the IC50 (cancer cell lines; Homo sapiens, MHH-ES-1, 72 h, MHHES1 (bone)) was > 50 µM. For the same molecule, the IC50 (cancer cell lines; Homo sapiens, MIA PaCa-2, 72 h, MIAPACA2 (pancreas)) was > 50 µM, the IC50 (cancer cell lines; Homo sapiens, MINO, MINO (hematological)) was 0.43 µM and the IC50 (cancer cell lines; Homo sapiens, MV4-11, 72 h, MV4-11 (hematological)) was 3.8 µM. The IC50 (cancer cell lines; Homo sapiens, NCI-H23, 72 h, NCI-H23 (lung)) was > 50 µM, the IC50 (cancer cell lines; Homo sapiens, NCI-H82, 72 h, NCIH82 (lung)) was > 50 µM and the IC50 (cancer cell lines; Homo sapiens, NCI-H292, 72 h, NCIH292 (lung)) was > 50 µM. The IC50 (cancer cell lines; Homo sapiens, NCI-H460, 72 h, NCIH460 (lung)) was 5.68 µM, the IC50 (cancer cell lines; Homo sapiens, OVCAR-3, 72 h, OVCAR3 (ovary)) was 2.57 µM and the IC50 (cancer cell lines; Homo sapiens, OVCAR-4, 72 h, OVCAR4 (ovary)) was > 50 µM. For the same molecule, the IC50 (cancer cell lines; Homo sapiens, PLC-PRF-5, 72 h, PLCPRF5 (liver)) was > 50 µM, the IC50 (cancer cell lines; Homo sapiens, Panc1005, 72 h, PANC1005 (pancreas)) was > 50 µM and the IC50 (cancer cell lines; Homo sapiens, Ramos, RAMOS (hematological)) was 2.69 µM. The IC50 (cancer cell lines; Homo sapiens, SAOS-2, 72 h, SAOS2 (bone)) was 1.49 µM, the IC50 (cancer cell lines; Homo sapiens, SF-268, 72 h, SF268 (brain)) was 3.8 µM and the IC50 (cancer cell lines; Homo sapiens, SF-295, 72 h, SF295 (brain)) was > 50 µM. The IC50 (cancer cell lines; Homo sapiens, SK-BR-3, 72 h, SKBR3 (breast)) was 4.56 µM, the IC50 (cancer cell lines; Homo sapiens, SK-HEP1, 72 h, SKHEP1 (liver)) was 2.54 µM and the IC50 (cancer cell lines; Homo sapiens, SK-LMS-1, 72 h, SKLMS1 (uterus)) was > 50 µM. The IC50 (cancer cell lines; Homo sapiens, SK-MEL-5, 72 h, SKMEL5 (skin; SKMELS [sic] in Table 9E)) was > 50 µM, the IC50 (cancer cell lines; Homo sapiens, SK-MEL-28, 72 h, SKMEL28 (skin)) was > 50 µM and the IC50 (cancer cell lines; Homo sapiens, SK-N-AS, SKNAS (brain)) was > 50 µM. The IC50 (cancer cell lines; Homo sapiens, SK-N-SH, SKNSH (brain)) was > 50 µM, the IC50 (cancer cell lines; Homo sapiens, SK-OV-3, 72 h, SKOV3 (ovary)) was > 50 µM and the IC50 (cancer cell lines; Homo sapiens, SNB-75, 72 h, SNB75 (brain)) was > 50 µM. It also gave an IC50 (cancer cell lines; Homo sapiens, SU-DHL10, 72 h, SU-DHL-10 (hematological)) of 2.73 µM, an IC50 (cancer cell lines; Homo sapiens, SU-DHL-6, 72 h, SU-DHL-6 (hematological)) of 2.87 µM and an IC50 (cancer cell lines; Homo sapiens, SW-620, 72 h, SW620 (colon)) of 4.6 µM. The IC50 (cancer cell lines; Homo sapiens, TE-671, 72 h, TE671 (muscle)) was > 50 µM, the IC50 (cancer cell lines; Homo sapiens, THP-1, 72 h, THP-1 (hematological)) was 3.44 µM and the IC50 (cancer cell lines; Homo sapiens, U2OS, U20S (bone; U2OS in Table 9E)) was > 50 µM. For the same molecule, the IC50 (cancer cell lines; Homo sapiens, U-87 MG, U87MG (brain)) was 2.91 µM, the IC50 (cancer cell lines; Homo sapiens, UMUC3, 72 h, UMUC3 (bladder)) was > 50 µM and the IC50 (cancer cell lines; Homo sapiens, UO-31, 72 h, UO31 (kidney)) was 8.13 µM. It also gave an IC50 (cancer cell lines; Homo sapiens, WSU-NHL, WSU-NHL (hematological)) of 1.67 µM, an IC50 (cancer cell lines; NCI-H358M, NCIH358M (lung)) of 1.04 µM and an IC50 (cancer cell lines; PBMC, PBMC (hematological)) of 2.61 µM. The IC50 (cancer cell lines; RD-ES, RDES (bone)) was > 50 µM.
